According to US6331555A, “Treatment of platelet derived growth factor related disorders such as cancers” (priority 1999, dated 2001):
“And” between values parts separate entries of the source, which are not always exact repeats. Identical values can stand only once. Like-named read-outs stand apart in the source and are kept apart here.

Columns and labels:
[1] = LD10; conditions: in vivo
[2] = tested on: C6 cells; test: C6 SRB growth assay; assay type: cell-based, rat; conditions: for IC50: read-out: C6 SRB IC50
[3] = C6 glioma SC xenograft in mice; assay type: in vivo; conditions: rat, in vivo, ip; for mortality at 240 h: 60 mg/kg (G24 at d10)
Method: (§1) Cell lines were grown in appropriate medium (see Appendix 1). Cells were harvested at or near confluency with 0.05% Trypsin-EDTA and pelleted at 450×g for 10 min. Pellets were resuspended in sterile PBS or media (without FBS) to a particular concentration and the cells were implanted into the hindflank of mice. Tumor growth was measured over 3 to 6 weeks using venier calipers. Tumor volumes were calculated as a product of length×width×height unless otherwise indicated. P values were calculated using the Students' t-test.
(§2) C6 and SKOV-3(T) cells were grown in culture, as described in "cell growth" above, and implanted into the hind flank of a female Balb/c nu/nu mouse at 3×10^6 cells (for C6 experiments), or 1×10^7 cells (for SKOV-3 experiments) in […] of PBS on Day 0. U87MG, U118MG or U373MG human glioblastoma cells (obtained from the ATCC), or A4312 were also implanted into athymic mice. […] Tumors were measured using venier calipers and tumor volume was calculated as a product of tumor length, width, and height.

[4] = tested on: C6 glioma cells; test: C6 glioma SC xenograft in mice; assay type: in vivo
Method: as §1, §2

[5] = target: PDGFR (Homo sapiens, UniProt P09619); test: Receptor tyrosine kinase inhibition, PDGFR; assay type: cell-based; parameters: U1242 (PDGF-β receptor); host or cells: U1242 glioma cells (ELISA); conditions: read-out: PDGFR IC50
Sequence of PDGFR (Homo sapiens, UniProt P09619) (P09619 33-1106): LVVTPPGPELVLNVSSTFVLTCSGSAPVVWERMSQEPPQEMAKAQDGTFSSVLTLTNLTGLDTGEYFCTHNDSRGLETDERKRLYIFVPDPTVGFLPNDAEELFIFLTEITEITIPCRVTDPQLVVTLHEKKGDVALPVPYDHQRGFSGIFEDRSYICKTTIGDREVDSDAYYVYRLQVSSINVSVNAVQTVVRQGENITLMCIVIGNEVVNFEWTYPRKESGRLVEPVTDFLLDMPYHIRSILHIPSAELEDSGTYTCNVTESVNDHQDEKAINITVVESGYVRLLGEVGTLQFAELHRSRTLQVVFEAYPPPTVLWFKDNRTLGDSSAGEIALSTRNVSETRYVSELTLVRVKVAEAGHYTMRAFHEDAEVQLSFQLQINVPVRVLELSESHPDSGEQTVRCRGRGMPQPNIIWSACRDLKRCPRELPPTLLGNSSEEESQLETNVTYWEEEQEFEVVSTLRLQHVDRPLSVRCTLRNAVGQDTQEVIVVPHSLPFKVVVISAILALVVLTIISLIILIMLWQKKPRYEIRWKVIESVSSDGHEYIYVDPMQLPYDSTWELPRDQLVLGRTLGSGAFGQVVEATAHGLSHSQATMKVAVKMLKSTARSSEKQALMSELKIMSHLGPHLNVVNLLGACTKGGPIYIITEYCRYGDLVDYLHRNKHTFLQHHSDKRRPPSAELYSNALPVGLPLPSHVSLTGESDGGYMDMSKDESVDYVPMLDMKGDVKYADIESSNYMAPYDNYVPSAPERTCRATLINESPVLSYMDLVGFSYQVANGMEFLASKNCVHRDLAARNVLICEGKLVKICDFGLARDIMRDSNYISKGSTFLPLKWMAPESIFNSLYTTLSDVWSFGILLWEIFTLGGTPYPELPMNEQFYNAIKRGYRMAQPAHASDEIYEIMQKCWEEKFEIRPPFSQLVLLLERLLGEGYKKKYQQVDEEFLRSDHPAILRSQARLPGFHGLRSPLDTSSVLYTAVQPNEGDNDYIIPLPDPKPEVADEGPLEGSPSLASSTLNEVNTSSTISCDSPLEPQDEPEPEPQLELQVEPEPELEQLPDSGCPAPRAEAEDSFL
Method: (§3) For western blotting, cells were plated in 2 mL growth medium into 6-well dishes (500,000 cells per well) and allowed to attach overnight. […] The plates were then incubated overnight at 37° C., ambient CO2. […] After a 7 min incubation at room temperature with ligand, the plates were put on ice and washed three times with 1 mL ice-cold PBS plus 1 mM orthovanadate. Lysis was achieved by pipetting cells in 0.5 mL of buffer containing 50 mM Tris, pH 7.4, 10% glycerol, 1% NP-40, 2 mM EDTA, 1 mM sodium vanadate (Na3 VO4), 10 mM pyrophosphate, 1 mM PMSF, […]. A 300 μL aliquot of each lysate was immediately added to 100 μL 4×Laemmli sample buffer ([…] Tris pH 6.9, 20% glycerol, 7% SDS, 5 mM EDTA, 5% β-mercaptoethanol) containing phosphatase inhibitors, 2 mM Na3 VO4 and 10 mM pyrophosphate. Samples were boiled for 5 min, frozen in dry ice-ethanol, and stored at -80° C. […] The integrity of the protein-to-membrane transfer was determined by staining with 1% Ponceau S in 5% acetic acid for 5 min. After destaining in several distilled water rinses, the membrane was soaked overnight in blocking buffer containing 5% milk in Tris-buffered saline, 0.05% Tween 20. Phosphotyresine was detected by incubating the membrane (1 hr at room temperature) with an anti-phosphotyosine antiserum diluted in blocking buffer at 1:3000. […] The antibodies were visualized using ECL reagent from Amersham and by exposure to Fuji RX film.
(§4) For ELISA assays, cells were grown to 80-90% confluency in growth medium and seeded in 96-well tissue culture plates in 0.5% serum at 25,000 to 30,000 cells per well. After overnight incubation in 0.5% serum-containingmedium, cells were changed to serum-free medium and treated with test compound for 2 hr in a 5% CO2, 37° C. incubator. […] Lysates were incubated with shaking for 1 hr at room temperature. The plates were washed with TBST four times and then incubated with polyclonol anti-phosphotyrosine antibody at room temperature for 30 min. Excess anti-phosphotyrosine antibody was removed by rinsing the plate with TBST four times. Goat anti-rabbit IgG antibody was added to the ELISA plate for 30 min at room temperature followed by rinsing with TBST four more times.
(§5) The ability of different compound to inhibit different receptor tyrosine kinases was tested.

[6] = target: T1, EGFR (Homo sapiens, UniProt P00533); test: Receptor tyrosine kinase inhibition, EGFR; assay type: cell-based; conditions: read-out: EGFR ID50
T1 construct: expressed in transfected cells; host or cells: NIH3T3 mouse fibroblasts, retroviral vector
T1 sequence (P00533 25-1210): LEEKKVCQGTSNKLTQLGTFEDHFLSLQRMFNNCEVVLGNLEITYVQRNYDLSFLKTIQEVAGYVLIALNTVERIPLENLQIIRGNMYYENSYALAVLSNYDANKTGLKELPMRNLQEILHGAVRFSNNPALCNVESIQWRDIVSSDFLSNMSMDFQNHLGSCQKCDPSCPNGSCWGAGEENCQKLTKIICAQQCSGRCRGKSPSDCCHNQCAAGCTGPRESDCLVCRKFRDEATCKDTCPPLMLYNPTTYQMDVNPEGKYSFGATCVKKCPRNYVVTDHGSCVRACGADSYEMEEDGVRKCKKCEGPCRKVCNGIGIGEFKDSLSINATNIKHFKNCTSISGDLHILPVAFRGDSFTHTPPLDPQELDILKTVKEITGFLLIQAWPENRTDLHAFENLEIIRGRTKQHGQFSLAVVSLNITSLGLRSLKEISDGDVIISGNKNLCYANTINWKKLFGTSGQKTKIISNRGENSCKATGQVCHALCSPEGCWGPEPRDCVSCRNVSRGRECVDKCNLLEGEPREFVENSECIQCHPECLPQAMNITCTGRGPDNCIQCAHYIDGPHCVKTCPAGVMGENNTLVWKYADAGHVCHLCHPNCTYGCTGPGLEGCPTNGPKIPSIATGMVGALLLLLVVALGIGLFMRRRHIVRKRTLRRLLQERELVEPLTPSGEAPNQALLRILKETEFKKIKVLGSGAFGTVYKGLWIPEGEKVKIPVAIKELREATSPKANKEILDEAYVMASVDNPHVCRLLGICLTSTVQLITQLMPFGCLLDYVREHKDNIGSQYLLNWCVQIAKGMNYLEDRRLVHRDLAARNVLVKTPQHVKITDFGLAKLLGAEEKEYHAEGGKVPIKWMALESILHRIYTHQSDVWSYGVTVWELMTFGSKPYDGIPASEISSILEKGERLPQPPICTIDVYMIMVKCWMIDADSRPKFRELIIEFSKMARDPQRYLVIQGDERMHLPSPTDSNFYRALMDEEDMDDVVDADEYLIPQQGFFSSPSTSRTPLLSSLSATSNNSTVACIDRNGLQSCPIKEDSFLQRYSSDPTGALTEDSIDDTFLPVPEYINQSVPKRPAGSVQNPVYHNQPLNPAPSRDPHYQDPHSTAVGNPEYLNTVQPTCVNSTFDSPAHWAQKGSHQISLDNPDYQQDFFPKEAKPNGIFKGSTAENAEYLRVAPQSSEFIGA
Method: (§6) For western blotting, cells were plated in 2 mL growth medium into 6-well dishes (500,000 cells per well) and allowed to attach overnight. The medium was replaced with 2 mL MCDB 105 (UCSF Cell Culture Facility) supplemented with 1% FBS. The plates were then incubated overnight at 37° C., ambient CO2. […] After a 7 min incubation at room temperature with ligand, the plates were put on ice and washed three times with 1 mL ice-cold PBS plus 1 mM orthovanadate. Lysis was achieved by pipetting cells in 0.5 mL of buffer containing 50 mM Tris, pH 7.4, 10% glycerol, 1% NP-40, 2 mM EDTA, 1 mM sodium vanadate (Na3 VO4), 10 mM pyrophosphate, 1 mM PMSF, […]. A 300 μL aliquot of each lysate was immediately added to 100 μL 4×Laemmli sample buffer ([…] Tris pH 6.9, 20% glycerol, 7% SDS, 5 mM EDTA, 5% β-mercaptoethanol) containing phosphatase inhibitors, 2 mM Na3 VO4 and 10 mM pyrophosphate. Samples were boiled for 5 min, frozen in dry ice-ethanol, and stored at -80° C. Proteins were resolved by SDS-PAGE (Bio-Rad Miniprotean II) and transferred to nitrocellulose membrane (Schleicher & Schuell) at 120 volts for 1 hr at room temperature in buffer containing 25 mM Tris pH 8.3, 20% methanol, 0.2 M glycine, 0.1% SDS. The integrity of the protein-to-membrane transfer was determined by staining with 1% Ponceau S in 5% acetic acid for 5 min. After destaining in several distilled water rinses, the membrane was soaked overnight in blocking buffer containing 5% milk in Tris-buffered saline, 0.05% Tween 20. Phosphotyresine was detected by incubating the membrane (1 hr at room temperature) with an anti-phosphotyosine antiserum diluted in blocking buffer at 1:3000. For C6 cells, PDGF-β receptor content in the lysates was confirmed in duplicate sample lanes by western blotting using an antibody specific for PDGF-β receptor (UBI). The antibodies were visualized using ECL reagent from Amersham and by exposure to Fuji RX film.
(§7) For ELISA assays, cells were grown to 80-90% confluency in growth medium and seeded in 96-well tissue culture plates in 0.5% serum at 25,000 to 30,000 cells per well. After overnight incubation in 0.5% serum-containingmedium, cells were changed to serum-free medium and treated with test compound for 2 hr in a 5% CO2, 37° C. incubator. Cells were then stimulated with ligand for 5-10 min followed by lysis with HNTG (20 mM Hepes, 150 mM NaCl, 10% glycerol, 5 mM EDTA, 5 mM Na3 VO4 0.2% Triton X-100, and 2 mM NaPyr). Cell lysates (0.5 mg/well in PBS) were transferred to ELISA plates previously coated with receptor-specific antibody and which had been blocked with 5% milk in TBST (50 mM Tris-HCl pH 7.2, 150 mM NaCl and 0.1% Triton X-100) at room temperature for 30 min. Lysates were incubated with shaking for 1 hr at room temperature. The plates were washed with TBST four times and then incubated with polyclonol anti-phosphotyrosine antibody at room temperature for 30 min. Excess anti-phosphotyrosine antibody was removed by rinsing the plate with TBST four times. Goat anti-rabbit IgG antibody was added to the ELISA plate for 30 min at room temperature followed by rinsing with TBST four more times.
as §5

[7] = tested on: HER2; test: Receptor tyrosine kinase inhibition, HER2; assay type: cell-based; conditions: read-out: HER2 IC50
Method: as §6, §7, §5

[8] = target: T2, PDGF-R (U1242) (Homo sapiens, UniProt P09619); test: U1242 kinase (PDGF-R activity); assay type: cell-based
T2 construct: U1242 (PDGF-β receptor); host or cells: U1242 MG glioma cells
T2 sequence (P09619 33-1106): as the sequence (P09619 33-1106) above
Method: as §3, §4
PDGF-R activity, C6 SRB, and in vivo efficacy were measured using the procedures described in the appendices above.

[9] = target: T3, FLK-1 (Mus musculus, UniProt P35918); test: Receptor tyrosine kinase inhibition, FLK-1; assay type: cell-based; conditions: read-out: FLK-1 IC50
T3 construct: expressed in transfected cells; host or cells: NIH3T3 mouse fibroblasts, retroviral vector
T3 sequence (P35918 20-1345): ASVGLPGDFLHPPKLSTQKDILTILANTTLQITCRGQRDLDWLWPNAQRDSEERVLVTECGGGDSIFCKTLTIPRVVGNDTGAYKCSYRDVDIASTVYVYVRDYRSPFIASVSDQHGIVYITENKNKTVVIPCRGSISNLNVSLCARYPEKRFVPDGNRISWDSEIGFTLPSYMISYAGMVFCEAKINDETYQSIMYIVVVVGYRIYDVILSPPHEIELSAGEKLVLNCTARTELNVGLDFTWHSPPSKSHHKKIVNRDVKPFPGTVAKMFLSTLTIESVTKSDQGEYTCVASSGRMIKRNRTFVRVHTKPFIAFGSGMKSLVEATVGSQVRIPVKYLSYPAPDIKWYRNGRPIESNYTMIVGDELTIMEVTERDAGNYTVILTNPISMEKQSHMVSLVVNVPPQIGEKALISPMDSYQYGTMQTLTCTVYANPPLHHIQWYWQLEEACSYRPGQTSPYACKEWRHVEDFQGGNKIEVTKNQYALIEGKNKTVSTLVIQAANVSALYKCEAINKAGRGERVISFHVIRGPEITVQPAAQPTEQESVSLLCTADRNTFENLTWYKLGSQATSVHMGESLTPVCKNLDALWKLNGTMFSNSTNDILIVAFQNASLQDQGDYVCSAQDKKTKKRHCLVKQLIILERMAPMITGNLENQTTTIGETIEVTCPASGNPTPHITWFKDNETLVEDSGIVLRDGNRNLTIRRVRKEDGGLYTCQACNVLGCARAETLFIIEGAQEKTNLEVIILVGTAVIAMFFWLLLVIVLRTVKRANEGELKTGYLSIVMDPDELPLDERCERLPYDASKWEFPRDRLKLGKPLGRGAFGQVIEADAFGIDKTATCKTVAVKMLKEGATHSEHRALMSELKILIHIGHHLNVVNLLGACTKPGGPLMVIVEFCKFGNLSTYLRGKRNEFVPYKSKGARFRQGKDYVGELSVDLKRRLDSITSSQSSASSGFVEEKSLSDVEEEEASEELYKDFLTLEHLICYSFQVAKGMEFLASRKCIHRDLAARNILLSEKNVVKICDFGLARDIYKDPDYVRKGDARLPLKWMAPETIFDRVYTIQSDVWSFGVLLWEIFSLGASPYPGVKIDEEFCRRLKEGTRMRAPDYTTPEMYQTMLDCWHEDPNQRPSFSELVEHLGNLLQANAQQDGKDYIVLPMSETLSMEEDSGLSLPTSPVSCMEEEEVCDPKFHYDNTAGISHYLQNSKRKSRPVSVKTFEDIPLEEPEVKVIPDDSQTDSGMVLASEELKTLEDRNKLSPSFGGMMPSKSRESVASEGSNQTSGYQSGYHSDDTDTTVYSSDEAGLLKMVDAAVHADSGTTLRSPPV
Method: as §6, §7, §5

[10] = tested on: PDGFR; test: Receptor tyrosine kinase inhibition, PDGFR; assay type: cell-based; conditions: W = done in Western assay; read-out: PDGFR IC50 (W)
Method: as §3, §4, §5

[11] = 40 mg/kg (J10 at d18, G24 at d15)
[12] = W = done in Western assay, read-out: U1242 KINASE IC50 (W)
[13] = Rattus norvegicus, C6 glioma, sc, at 40 mg/kg, read-out: C6 in vivo EFFICACY

| SMILES | LD10 [1] [mg/kg] | IC50 ([2]; Rattus norvegicus, C6) [µM] | IC50 [5] [µM] | IC50 [6] [µM] | IC50 [7] [µM] | IC50 ([8]; read-out: U1242 KINASE IC50) | IC50 [9] [µM] | other results |
| --- | --- | --- | --- | --- | --- | --- | --- | --- |
| Cc1noc(C)c1C(=O)Nc1ccc(C(F)(F)F)cc1 [Compound A13, N-trifluoromethlyphenyl 3,5-dimethylisoxazole-4-carboxamide] | > 200 | > 25 | – | – | – | – | – | inhibition at 25 µM ([2]; Rattus norvegicus, C6, at 25 μM): ~30% |
| Cc1cc2nc(-c3ccccc3)c(-c3ccc(O)c(O)c3)nc2cc1C [Compound G24] | > 200 | – | 5 | > 100 | > 50 | 0.6 µM and 5 µM | 9.3 | mortality ([3]; 20 mg/kg): 0%; mortality [3, 11]: 12.5%; mortality at 240 h [3]: 100%; C6 in vivo EFFICACY ([4]; at 20 mg/kg): no effect; C6 in vivo EFFICACY ([4]; at 40 mg/kg): no effect; C6 in vivo EFFICACY ([4]; at 60 mg/kg): no effect |
| Cc1cc2nc(C(=O)O)c(-c3ccccc3)nc2cc1C [Compound G25] | – | 50 | 0.9 | > 50 | > 50 | 1 µM | > 50 | – |
| Cc1cc2ncc(Nc3cccc(I)c3)nc2cc1C [Compound G29] | – | > 13 | 23 | < 0.8 | 34 | 23.2 µM | 10 | – |
| Cc1cc2ncc(Nc3ccc(I)cc3)nc2cc1C [Compound G30] | – | 2 | 32 | > 100 | 34 | 32.5 µM | 10 | – |
| CC1c2nc3ccccc3c(=O)n2C(c2ccc(O)c(O)c2)N1Cc1ccccc1 (stereo not drawn) [Compound H10] | 75 | 13 | – | – | – | > 50 µM | > 50 | mortality at 408 h ([3]; 30 mg/kg, at d17): 14.3%; inhibition in vivo at 30 mg/kg ([4]; Rattus norvegicus, C6 glioma, sc, at 30 mg/kg, read-out: C6 in vivo EFFICACY): 52%; IC50 [8, 12]: 25 µM; IC50 [10]: 25 µM |
| CC1c2nc3ccccc3c(=O)n2C(c2ccc(O)cc2)N1Cc1ccccc1 (stereo not drawn) [Compound H13] | > 400 | 20 | – | – | – | > 50 µM | – | mortality [3, 11]: 0%; mortality at 192 h ([3]; 100 mg/kg (E15 at d8)): 0%; inhibition in vivo at 40 mg/kg [4, 13]: 0%; inhibition in vivo at 100 mg/kg ([4]; Rattus norvegicus, C6 glioma, sc, at 100 mg/kg, read-out: C6 in vivo EFFICACY): 41%; IC50 [2]: 10.5 µM |
| N#CC(=Cc1cc(O)c(O)c(Br)c1)S(=O)(=O)C(C#N)=Cc1cc(O)c(O)c(Br)c1 [Compound J10] | 171 | 12 | – | > 100 | > 100 | > 50 µM | – | mortality [3, 11]: 100%; inhibition in vivo at 40 mg/kg [4, 13]: 73%; IC50 [8, 12]: 1 µM; IC50 [10]: 1 µM |
| N#CCS(=O)(=O)C(C#N)=Cc1cc(O)c(O)c(Br)c1 [Compound J11] | – | 14 | 3 | > 100 | > 50 | 3.1 µM | > 25 | – |
| COc1cc2ncnc(Nc3ccccc3)c2cc1OC [Compound P14] | – | – | 26 | > 50 | 10 | – | > 200 | – |
| COCCCN1C(=O)SC(=Cc2ccccc2Cl)C1=O [Compound P15] | – | – | 46 | > 100 | > 50 | – | > 50 | – |
| COc1cc(C=C(C#N)C(=O)NCCCc2ccccc2)cc(I)c1O [Compound P16] | > 400 | 17 | – | – | – | – | – | mortality at 240 h [3]: 0%; C6 in vivo EFFICACY ([4]; at 60 mg/kg): no effect |
| COc1cc2ncnc(N3CCc4ccccc43)c2cc1OC [Compound P17] | > 100 | 12 | – | – | – | – | – | – |
